Data on 78 molecules can be found in the METLIN SMRT retention time set (Domingo-Almenara et al. 2019).

This series in a line: gradient 5% acetonitrile 3 min, to 50% in 2 min, to 85% in 15 min, held 3 min, 100 µL/min. Particulars: column: Zorbax Extend-C18 2.1 x 50 mm; eluents: water / acetonitrile, 0.1% formic acid. An outline of the steps:
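Each retention time is based on an adduct peak selected computationally and verified by manual inspection. Measurements used HPLC–quadrupole time-of-flight mass spectrometry in positive and negative ionization mode on mixtures of ~100 pure standards. Chromatography ran on a Zorbax Extend-C18 column (2.1 × 50 mm, 1.8 μm) at 100 μL/min with water and acetonitrile, each containing 0.1% formic acid, and dead and dwell volumes of 40 μL and 900 μL.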
`CC(C)NC(=O)CSc1nccnc1N1CCN(c2ccccc2)CC1` had an RP-LC retention time of 867 s.

With `CC1CCCN(c2ccc(NC(=O)c3cccs3)cc2C(=O)O)C1` (stereo not drawn), the RP-LC retention time came to 666 s.

`O=C(NCc1cnoc1-c1ccc(F)cc1)c1c(F)cccc1F`: the RP-LC retention time was 817 s.

The molecule `COc1cccc(CNC(=O)N2CCC3(C2)C(=O)N(C)c2ccc(OC)cc23)c1` (stereo not drawn) displayed an RP-LC retention time of 704 s.

`Cc1cc(C)c(NC(=O)Cn2cccc(-c3nc(-c4ccc(Br)cc4)no3)c2=O)c(C)c1` returned an RP-LC retention time of 1030 s.

Take `CCNC(=O)c1c(-c2cccnc2)noc1C`: the RP-LC retention time turned out to be 583 s.

In the case of `O=C(c1ccco1)N1CCN=C1SCc1cccc(C(F)(F)F)c1`, the RP-LC retention time worked out at 849 s.

Molecule `Cc1nc(OCC(=O)Nc2ccc(F)c(Cl)c2)c2ccccc2n1` had an RP-LC retention time of 782 s.

Turning to `COc1cc(NC(=O)Cc2csc3nc(-c4cccc(Br)c4)cn23)cc(OC)c1`, the RP-LC retention time is 974 s.

`Cc1nc(C2(C)CCN(S(=O)(=O)c3cc(C)c(C)cc3C)CC2)no1` showed an RP-LC retention time of 1070 s.

Turning to `CC(=O)Nc1cccc(N2CC(C(=O)Nc3ccc(C)cc3Br)CC2=O)c1` (stereo not drawn), the RP-LC retention time is 720 s.

Consider `CC(=O)N1c2ccc(S(=O)(=O)N3CCCC3)cc2CC1C(=O)Nc1c(C)cc(C)cc1C` (stereo not drawn), for which the RP-LC retention time stood at 876 s.

`CCC(c1cccs1)N1C(=O)[C@H]2CN(S(=O)(=O)c3ccc(C)c(C)c3)C[C@H]2C1=O` (stereo partly drawn) had an RP-LC retention time of 1070 s.

Regarding `COCc1noc([C@@H]2CN(C(=O)c3ccc(Cl)s3)C[C@H]2C(N)=O)n1`, the RP-LC retention time was 676 s.

For `COc1cc2c(cc1OC)CN(C(=O)CSc1ncnc3sc(C)c(C)c13)CC2`, the RP-LC retention time was 851 s.

The molecule `COc1ccc(OC)c(NC(=O)c2[nH]c3cc(C)sc3c2CN2CCOCC2)c1` came in with an RP-LC retention time of 705 s.

Turning to `O=C(CN1c2ccc(F)cc2-c2ccccc2S1(=O)=O)N1CCCCC1`, the RP-LC retention time was 915 s.

With `CC1CCC(C(=O)Nc2cc3c(cc2N2CCCCC2)n(C)c(=O)c(=O)n3C)CC1` (stereo not drawn), the RP-LC retention time worked out at 1050 s.

Take `CC(CNC(=O)C1CCN(C(=O)c2ncn3c2COC(c2ccc(F)cc2)C3)CC1)c1ccccc1` (stereo not drawn): the RP-LC retention time was determined as 754 s.

Molecule `O=C(NCC1CCOCC1)c1nccc2ccccc12` showed an RP-LC retention time of 717 s.

As to `Cc1nc(C)c(C(=O)N2CCCC(c3nn(C)c(=O)n3-c3ccccc3)C2)s1` (stereo not drawn), the RP-LC retention time was found to be 641 s.

`COCCN(Cc1ccc(Cl)cc1)Cc1cc(=O)n2cc(C)ccc2n1` gave an RP-LC retention time of 662 s.

With `Cn1cc(C(=O)Nc2ccc3c(c2)CCC3)c(S(=O)(=O)N2CCSCC2)n1`, the RP-LC retention time was 1040 s.

`COc1ccc(OC)c(NC(=O)c2cc(C3CC3)[nH]n2)c1` came in with an RP-LC retention time of 775 s.

`CN(C)C(=O)c1ccc2c(c1)CCN2C(=O)C1CCCC1` returned an RP-LC retention time of 720 s.

`CS(=O)(=O)c1ccc(C(=O)Nc2ccc(Cl)c(-c3ccccn3)c2)c(Cl)c1` registered an RP-LC retention time of 891 s.

With `O=C(NCC1CCN(Cc2ccccc2F)CC1)C1CCN(c2ccc3nncn3n2)CC1`, the RP-LC retention time was determined as 584 s.

`CCc1noc(NC(C)=O)c1-c1ccc(C)c(S(=O)(=O)NCc2ccccc2OC)c1`: the RP-LC retention time stood at 827 s.

Turning to `O=C(NC1CC1)c1ccc2c(c1)CCCN2S(=O)(=O)c1ccc(Cl)cc1`, the RP-LC retention time was 896 s.

With `CCCOc1nc2ccccc2nc1N1CCCC(C(=O)Nc2ccc(NC(C)=O)cc2)C1` (stereo not drawn), the RP-LC retention time was found to be 968 s.

On to `CCCCc1ccc(NC(=O)NC2CCN(c3cc(N4CCCC4)cnn3)C2)cc1` (stereo not drawn), for which the RP-LC retention time stood at 814 s.

As for `COc1ccc(OC)c(S(=O)(=O)N2CCC(Cc3ncc(C)n3C3CC3)C2)c1` (stereo not drawn), the RP-LC retention time was found to be 656 s.

The molecule `O=C(NC1CC1)c1c2c(nc3ccccc13)CCCC2` yielded an RP-LC retention time of 585 s.

As to `Cc1noc(COC2CCCN(C(=O)NCc3ccccc3)C2)n1` (stereo not drawn), the RP-LC retention time amounted to 684 s.

`Cc1ccc(-c2noc(CN3N=NC4C(=O)N(c5cccc(F)c5)C(=O)C43)n2)cc1` (stereo not drawn) registered an RP-LC retention time of 1020 s.

Molecule `Cc1ccc(C(=O)N2CCN(c3ccccn3)CC2)cc1NC(=O)C1=CSCCO1` came in with an RP-LC retention time of 604 s.

`O=C(Cn1cnc2ccccc2c1=O)N[C@H](C(=O)O)c1ccccc1`: the RP-LC retention time turned out to be 642 s.

Molecule `COc1ccc(-c2cn3c(CC(=O)Nc4ccc(Cl)cn4)csc3n2)cc1OC` had an RP-LC retention time of 715 s.

`COc1cc(CNC(=O)CCC(=O)N2CC3CCCN3c3ccccc32)cc(OC)c1OC` (stereo not drawn) had an RP-LC retention time of 818 s.

With `CCOC(=O)c1noc2nc(C)nc(NCc3ccccc3)c12`, the RP-LC retention time was 1060 s.

`COc1ccc(CNC(=O)C2CCN(S(=O)(=O)c3ccc4c(c3)sc(=O)n4C)CC2)cc1` showed an RP-LC retention time of 795 s.

In the case of `CC12CCC(C(=O)NCc3ccccc3)(OC1=O)C2(C)C` (stereo not drawn), the RP-LC retention time was found to be 768 s.

Take `O=C(Nc1ccc(OCc2nnc(-c3ccc(Cl)cc3)o2)cc1)c1ccccn1`: the RP-LC retention time is 990 s.

`Cn1nc(-c2nnc(-c3ccc(F)cc3)o2)c2c1CCN(S(=O)(=O)c1ccc(F)cc1F)C2` had an RP-LC retention time of 985 s.

Take `Cc1cc(C)cc(NC(=O)Cn2c(N3CCC(C)CC3)nc(C)cc2=O)c1`: the RP-LC retention time came out at 796 s.

As for `CC(C)CCNC(=O)C1CCN(c2nc3ccsc3c(=O)n2-c2ccccc2)CC1`, the RP-LC retention time stood at 838 s.

For the molecule `CCN1C(=O)c2cc(C(=O)NCc3ccc(N(C)C)cc3)nn2CC1(C)C(=O)NC1CCCC1` (stereo not drawn), the RP-LC retention time was 570 s.

`O=C(Nc1ccc2c(c1)OCCO2)C1CCCN(c2ccnc(-c3ccc(F)cc3)n2)C1` (stereo not drawn): the RP-LC retention time stood at 691 s.

For the molecule `CCC(C(=O)Nc1ccc(OC)cc1)n1cnc2nc3c(cc2c1=O)CCCC3` (stereo not drawn), the RP-LC retention time came out at 770 s.

Consider `CN(c1nc2ccccc2s1)C1CCN(C[C@H](O)COc2ccc(F)c(F)c2)CC1`, for which the RP-LC retention time turned out to be 777 s.

Turning to `Cc1cc([N+](=O)[O-])ccc1NC(=O)C1COc2ccccc2O1` (stereo not drawn), the RP-LC retention time amounted to 920 s.

Consider `CC(C)c1ccc(N2C(=O)CN(S(C)(=O)=O)CC2(C)C(=O)NCc2ccc(Cl)cc2)cc1` (stereo not drawn), for which the RP-LC retention time amounted to 966 s.

The molecule `O=C(Nc1ccc(F)cc1)C1CCCN(C(=O)c2ccc(F)c(F)c2)C1` (stereo not drawn) yielded an RP-LC retention time of 860 s.

`COc1ccccc1NC(=O)Cn1nc2c(N3CCCCCC3)nccn2c1=O`: the RP-LC retention time came out at 696 s.

`COC(=O)c1ccc(NC(=O)C(=O)NCC2CCN(S(C)(=O)=O)CC2)cc1` had an RP-LC retention time of 828 s.

`CCN1C(=O)c2cccnc2Sc2cc(NC(=O)Cc3ccccc3C)ccc21` returned an RP-LC retention time of 898 s.

For the molecule `COc1cccc(CN2CCc3nc(N4CCN(c5ccccc5F)CC4)ncc3C2)c1`, the RP-LC retention time was found to be 785 s.

`CC(C)(C)c1[nH]cnc1/C=c1\[nH]c(=O)/c(=C/c2ccccc2)[nH]c1=O` registered an RP-LC retention time of 806 s.

Consider `O=C(Nc1nc(-c2ccccc2)cs1)c1ccc(S(=O)(=O)N2CCCCC2)cc1`, for which the RP-LC retention time was determined as 1150 s.

For `Cc1noc([C@@H]2CN(C(=O)c3cc(C)n(Cc4ccco4)c3C)C[C@H]2C(N)=O)n1`, the RP-LC retention time was 686 s.

In turn, `Clc1ccc(Nc2nc(-c3ccncc3)nc3ccccc23)cc1` had an RP-LC retention time of 848 s.

`CN(CCCNC(=O)Cn1c(=O)c2cccn2c2ccccc21)Cc1ccccc1`: the RP-LC retention time turned out to be 631 s.

On to `COc1ccc(Nc2c(C(=O)N3CCCCC3)cnc3nc(C)ccc23)cc1OC`, for which the RP-LC retention time was determined as 588 s.

`CCOC(=O)c1ccccc1NC(=O)N(CC)Cc1cc(=O)[nH]c2ccccc12` showed an RP-LC retention time of 907 s.

As to `CN1C(=O)c2cccnc2Sc2cc(NC(=O)Cc3cccc(Cl)c3)ccc21`, the RP-LC retention time was 831 s.

The molecule `O=C(Cn1c(=O)c2cc(-c3cccs3)nn2c2ncccc21)Nc1ccccc1F` showed an RP-LC retention time of 839 s.

For the molecule `CCc1ccc2nc(Nc3nc(C)c4c(n3)CCCC4)nc(C)c2c1`, the RP-LC retention time amounted to 754 s.

With `Cc1nccn1CCC(C(N)=O)(c1ccccc1)c1ccccc1`, the RP-LC retention time was 688 s.

In turn, `Cc1cccc(NC(=O)N2c3ccccc3CC2c2nc(C3CC3)no2)c1C` (stereo not drawn) yielded an RP-LC retention time of 1100 s.

The molecule `O=C(C1CC1)N1CCC(c2noc(-c3cccnc3)n2)C1` (stereo not drawn) came in with an RP-LC retention time of 631 s.

Consider `CCn1c(=O)c(N2CCCC(C(=O)N3CCCCCC3)C2)nc2cccnc21` (stereo not drawn), for which the RP-LC retention time worked out at 1000 s.

Consider `Cc1sc2ncnc(SCc3ccco3)c2c1C`, for which the RP-LC retention time stood at 1150 s.

For `COc1cc2c(c(OC)c1OC)-c1ccc(OC)c(=O)cc1[C@@H](NC(=O)c1ccccc1)CC2`, the RP-LC retention time was 722 s.

The molecule `CC(C(=O)NCCCN1CCC(N2CCCCC2)CC1)n1c(=O)c(C(F)(F)F)nc2ccccc21` (stereo not drawn) displayed an RP-LC retention time of 595 s.

Regarding `Cc1ccc(NC(=O)CSc2nnc3c4cc(-c5ccc(Cl)cc5)nn4ccn23)cc1F`, the RP-LC retention time was 1010 s.

In turn, `Cc1ccc(-c2nc(NC(=O)/C=C/c3ccc(Cl)cc3)sc2C)cc1` displayed an RP-LC retention time of 1300 s.

`Cc1ccc(CNC(=O)N(C)CCc2noc(COc3cccc(C)c3)n2)cc1` came in with an RP-LC retention time of 956 s.

Molecule `COCCn1cc(CCNC(=O)Nc2ccc(Cl)cc2F)c2cccnc21` came in with an RP-LC retention time of 806 s.
